Assay results reported in patent EP0490590A1, “New benzodiazepine analogs” (MERCK & CO. INC., priority 1990, dated 1992).

Legend:
CCK receptor (pancreas) = molecular target: T1, CCK receptor (pancreas) (Rattus norvegicus, UniProt P30551); assay: CCK Receptor Binding (Pancreas), 125I-CCK-33; details: inhibition of 125I-CCK-33 binding, rat pancreas membranes, 37°C, 30 minutes
T1 construct: The whole pancreas was dissected free of fat tissue and was homogenized; from tissue; host or cells: rat whole pancreas membrane homogenate
T1 sequence (P30551 1-444): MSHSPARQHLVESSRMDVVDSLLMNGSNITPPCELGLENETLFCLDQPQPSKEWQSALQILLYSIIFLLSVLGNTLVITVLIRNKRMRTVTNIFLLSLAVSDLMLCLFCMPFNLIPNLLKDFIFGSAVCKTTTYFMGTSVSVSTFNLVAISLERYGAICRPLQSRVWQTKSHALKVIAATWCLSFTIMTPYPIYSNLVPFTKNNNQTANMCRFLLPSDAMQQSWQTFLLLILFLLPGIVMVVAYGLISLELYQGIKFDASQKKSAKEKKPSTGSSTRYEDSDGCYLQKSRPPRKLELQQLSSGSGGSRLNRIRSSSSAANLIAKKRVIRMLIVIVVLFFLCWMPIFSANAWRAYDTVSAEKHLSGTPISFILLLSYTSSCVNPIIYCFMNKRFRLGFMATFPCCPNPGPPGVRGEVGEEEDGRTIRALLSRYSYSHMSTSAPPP
Procedure: 1. CCK Receptor Binding (Pancreas)
CCK-33 was radiolabeled with ¹²⁵I-Bolton Hunter reagent (2000 Ci/mmole) as described by Sankara et al. (J. Biol. Chem. 254: 9349-9351, 1979). Receptor binding was performed according to Innis and Snyder (Proc. Natl. Acad. Sci. 77, 6917-6921, 1980) with the minor modification of adding the additional protease inhibitors, phenylmethane sulfonyl fluoride and o-phenanthroline. The latter two compounds have no effect on the ¹²⁵I-CCK receptor binding assay.
Male Sprague-Dawley rats (200-350g) were sacrificed by decapitation. The whole pancreas was dissected free of fat tissue and was homogenized in 20 volumes of ice-cold 50 mM, Tris HCl (pH 7.7 at 25°C) with a Brinkmann Polytron PT 10. The homogenates were centrifuged at 48,000 g for 10 min. Pellets were resuspended in Tris Buffer, centrifuged as above and resuspended in 200 volumes of binding assay buffer (50 mM Tris HCl, pH 7.7 at 25°C, 5 mM dithiothrietol, 0.1 mM bacitracin, 1.2 mM phenylmethane sulfonyl fluoride and 0.5 mM o-phenanthroline). […] The supernatant was aspirated and discarded, pellets were counted with a Beckman gamma 5000. […]

[1] = molecular target: T2, CCK receptor (brain, cerebral cortex) (Cavia porcellus, UniProt H0VZC5); assay: CCK Receptor Binding (Brain), 125I-CCK-33; details: inhibition of 125I-CCK-33 binding, guinea pig cerebral cortex membranes, 25°C, 2 hours
T2 construct: Cerebral cortex was dissected and used as a receptor source; from tissue; host or cells: guinea pig cerebral cortex membranes
Procedure: 2. CCK Receptor Binding (Brain)
CCK-33 was radiolabeled and the binding was performed according to the description for the pancreas method with modifications according to Saito et al., J. Neurochem. 37:483-490, 1981.
Male Hartley guinea pigs (300-500g) were sacrificed by decapitation and the brains were removed and placed in ice-cold 50 mM, Tris HCl plus 7.58 g/l Trizma-7.4 (ph 7.4 at 25°C). Cerebral cortex was dissected and used as a receptor source. Each gram of fresh guinea pig brain tissue was homogenized in 10 ml of Tris/Trizma buffer with a Brinkman polytron PT-10. The homogenates were centrifuged at 42,000 g for 15 minutes. Pellets were resuspended in Tris Buffer, centrifuged as above and resuspended in 200 volumes of binding assay buffer (10 mM N-2-hydroxyethyl-piperazine-N′-2-ethane sulfonic acid (HEPES), 5 mM MgCl₂, 0.25 mg/ml bacitracin, 1 mM ethylene glycol-bis-(β-aminoethylether-N,N′-tetraacetic acid) (EGTA), and 0.4% bovine serum albumin (BSA)). […] The supernatant was aspirated and discarded, pellets were counted with a Beckman gamma 5000.

T2 sequence (H0VZC5 entry or part of it): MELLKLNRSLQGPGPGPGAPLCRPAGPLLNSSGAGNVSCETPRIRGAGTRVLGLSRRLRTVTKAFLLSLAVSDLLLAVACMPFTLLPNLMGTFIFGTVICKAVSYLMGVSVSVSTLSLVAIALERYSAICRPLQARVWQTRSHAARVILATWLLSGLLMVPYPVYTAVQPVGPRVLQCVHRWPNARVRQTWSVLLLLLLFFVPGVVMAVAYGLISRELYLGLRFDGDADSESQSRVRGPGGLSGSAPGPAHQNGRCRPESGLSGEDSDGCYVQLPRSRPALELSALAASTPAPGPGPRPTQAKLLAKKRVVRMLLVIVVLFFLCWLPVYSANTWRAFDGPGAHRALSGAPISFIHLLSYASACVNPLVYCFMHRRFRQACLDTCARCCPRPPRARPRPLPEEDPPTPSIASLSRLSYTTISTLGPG

`CN1C(=O)C(NC(=O)c2cc3cc(O)ccc3[nH]2)N=C(c2ccccc2)c2ccccc21` (centres unmarked) [Example 15, 1,3-Dihydro-3-(5-hydroxyindole-2-carbonylamino)-1-methyl-5-phenyl-2H-1,4-benzodiazepin-2-one] was tested, and the IC50 (CCK receptor (pancreas)) was 0.0033 µM and the IC50 [1] was 0.91 µM.
